These results are taken from patent US20210355121A1, “FUSED TRICYCLIC KRAS INHIBITORS” (Incyte Corporation, priority 2020, published 2021).

Broadly, the IC50 is the point on the concentration scale where inhibition reaches its midpoint.

Like-named read-outs stand apart in the source and are kept apart here.

Assay [1] deals with MIA PaCa-2 (KRAS G12C) cells. Put plainly: KRAS_G12C cellular pERK HTRF assay. As to conditions: phospho-ERK1/2 HTRF, 4 hours incubation, read-out: G12C_pERK (KRAS_G12C pERK assay IC50). The class given is cell-based, human. As for the experimental part:
MIA PaCa-2 (KRAS G12C; ATCC® CRL-1420), A427 (KRAS G12D; ATCC® HTB53), HPAF-II (KRAS G12D; ATCC® CRL-1997) and NCI-H838 (KRAS WT; ATCC® CRL-5844) cells are purchased from ATCC and maintained in RPMI 1640 media supplemented with 10% FBS (Gibco/Life Technologies). The cells are plated at 5000 cells per well (8 uL) into Greiner 384-well low volume, flat-bottom, tissue culture treated white plates and incubated overnight at 37° C., 5% CO2. The next morning, test compound stock solutions are diluted in media at 3× the final concentration, and 4 uL are added to the cells. The plate is mixed by gentle rotation for 30 seconds (250 rpm) at room temperature. The cells are incubated with the KRAS G12C and G12D compounds for 4 hours or 2 hours respectively at 37° C., 5% CO2.
4 uL of 4× lysis buffer with blocking reagent (1:25) (Cisbio) are added to each well and plates are rotated gently (300 rpm) for 30 minutes at room temperature. 4 uL per well of Cisbio anti Phospho-ERK 1/2 d2 is mixed with anti Phospho-ERK 1/2 Cryptate (1:1) are added to each well, mixed by rotation and incubated overnight in the dark at room temperature. Plates are read on the Pherastar plate reader at 665 nm and 620 nm wavelengths. IC50 determination is performed by fitting the curve of inhibitor percent inhibition versus the log of the inhibitor concentration using the GraphPad Prism 7 software.
For orientation: TR-FRET usually uses a lanthanide donor and a delayed reading to cut background.

For a further assay, the target named is KRAS G12C (Homo sapiens, UniProt P01116, G12C). Put plainly: KRAS G12C GDP-GTP exchange assay (bodipy-GDP for GppNHp, with SOS1). The class given is biochemical. The note with it: 2.5 nM bodipy-loaded KRAS G12C, 2 hours pre-incubation with inhibitor, 2 hours after GppNHp-SOS1; read-out: G12C_exchange (KRAS_G12C exchange assay IC50). As to the method: The inhibitor potency of the exemplified compounds was determined in a fluorescence based guanine nucleotide exchange assay, which measures the exchange of bodipy-GDP (fluorescently labeled GDP) for GppNHp (Non-hydrolyzable GTP analog) to generate the active state of KRAS in the presence of SOS1 (guanine nucleotide exchange factor). Inhibitors were serially diluted in DMSO and a volume of 0.1 μL was transferred to the wells of a black low volume 384-well plate. 5 μL/well volume of bodipy-loaded KRAS G12C diluted to 5 nM in assay buffer (25 mM Hepes pH 7.5, 50 mM NaCl, 10 mM MgCl2 and 0.01% Brij-35) was added to the plate and pre-incubated with inhibitor for 2 hours at ambient temperature. Appropriate controls (enzyme with no inhibitor or with a G12C inhibitor (AMG-510)) were included on the plate. The exchange was initiated by the addition of a 5 μL/well volume containing 1 mM GppNHp and 300 nM SOS1 in assay buffer. The 10 μL/well reaction concentration of the bodipy-loaded KRAS G12C, GppNHp, and SOS1 were 2.5 nM, 500 uM, and 150 nM, respectively. The reaction plates were incubated at ambient temperature for 2 hours, a time estimated for complete GDP-GTP exchange in the absence of inhibitor. For the KRAS G12D and G12V mutants, similar guanine nucleotide exchange assays were used with 2.5 nM as final concentration for the bodipy loaded KRAS proteins and with 4 hours and 3 hours incubation after adding GppNHp-SOS1 mixture for G12D and G12V respectively. A cyclic peptide described to selectively bind G12D mutant (Sakamoto et al., BBRC 484.3 (2017), 605-611) or internal compounds with confirmed binding were used as positive controls in the assay plates. Fluorescence intensities were measured on a PheraStar plate reader instrument (BMG Labtech) with excitation at 485 nm and emission at 520 nm.
Chain of KRAS G12C (P01116 1-188 isoform P01116-2 G12C): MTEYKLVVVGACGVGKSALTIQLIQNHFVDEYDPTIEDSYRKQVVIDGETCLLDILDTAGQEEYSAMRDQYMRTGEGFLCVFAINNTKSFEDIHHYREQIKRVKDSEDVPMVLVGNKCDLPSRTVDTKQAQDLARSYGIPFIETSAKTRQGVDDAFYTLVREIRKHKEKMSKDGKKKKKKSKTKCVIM
Either GraphPad prism or XLfit was used to analyze the data. The IC50 values were derived by fitting the data to a four parameter logistic equation producing a sigmoidal dose-response curve with a variable Hill coefficient. Prism equation: Y=Bottom+(Top−Bottom)/(1+10^((Log IC50−X)*Hill slope)); XLfit equation: Y=(A+((B−A)/(1+((X/C)^D)))) where X is the logarithm of inhibitor concentration and Y is the response.

In the case of `CN(C)C/C=C/C(=O)N1CC[C@H](n2ncc3c(N4CC(C)(N(C)C)C4)nc4c(F)c(-c5cccc6cccc(Cl)c56)c(Cl)cc4c32)C[C@H]1CC#N` [Example 63, 2-((2S,4S)-4-(8-chloro-7-(8-chloronaphthalen-1-yl)-4-(3-(dimethylamino)-3-methylazetidin-1-yl)-6-fluoro-1H-pyrazolo[4,3-c]quinolin-1-yl)-1-((E)-4-(dimethylamino)but-2-enoyl)piperidin-2-yl)acetonitrile], the IC50 in assay [1] (Homo sapiens, MIA PaCa-2) was ≤ 100 nM; at KRAS G12C, ≤ 100 nM.

With `C[C@H](Oc1nc2c(F)c(-c3cccc4cccc(Cl)c34)c(Cl)cc2c2c1cnn2[C@H]1CCN(C(=O)/C=C/CF)[C@H](CC#N)C1)[C@@H]1CCCN1C` [Example 85, 2-((2S,4S)-4-(8-chloro-7-(8-chloronaphthalen-1-yl)-6-fluoro-4-((S)-1-((S)-1-methylpyrrolidin-2-yl)ethoxy)-1H-pyrazolo[4,3-c]quinolin-1-yl)-1-((E)-4-fluorobut-2-enoyl)piperidin-2-yl)acetonitrile], the IC50 in assay [1] (Homo sapiens, MIA PaCa-2) is ≤ 100 nM; at KRAS G12C, ≤ 100 nM.

For `Cc1cc2[nH]ncc2c(-c2c(Cl)cc3c(nc(N4CC(N(C)C)C4)c4cnn([C@H]5CCN(C(=O)/C=C/CF)[C@H](CC#N)C5)c43)c2F)c1C` (single isomer, unassigned) [Example 72a], the IC50 is ≤ 100 nM in assay [1] (Homo sapiens, MIA PaCa-2) and ≤ 100 nM on KRAS G12C.

Take `Cc1c(Cl)cc2[nH]ncc2c1-c1c(Cl)cc2c(nc(OC[C@@H]3CCCN3C)c3cnn([C@H]4CCN(C(=O)/C=C/CN(C)C)[C@H](CC#N)C4)c32)c1F` (single isomer, unassigned) [Example 17a]: the IC50 is ≤ 100 nM in assay [1] (Homo sapiens, MIA PaCa-2) and ≤ 100 nM on KRAS G12C.

Take `C=CC(=O)N1CC[C@H](n2ncc3c(N4CC(N(C)C)C4)nc4c(F)c(-c5ccc(F)c6cccnc56)c(Cl)cc4c32)C[C@H]1CC#N` (single isomer, unassigned) [Example 21a]: the concentration for half-maximal inhibition (IC50) in assay [1] (Homo sapiens, MIA PaCa-2) was ≤ 100 nM; at KRAS G12C it was ≤ 100 nM.

Take `COC/C=C/C(=O)N1CC[C@H](n2ncc3c(N4CC(C)(N(C)C)C4)nc4c(F)c(-c5c(C)c(Cl)cc6[nH]ncc56)c(Cl)cc4c32)C[C@H]1CC#N` (single isomer, unassigned) [Example 12a]: the IC50 in assay [1] (Homo sapiens, MIA PaCa-2) was ≤ 100 nM; at KRAS G12C, ≤ 100 nM.

`Cc1cc2[nH]ncc2c(-c2c(C)cc3c(nc(O[C@@H](C)[C@@H]4CCCN4C)c4cnn([C@H]5CCN(C(=O)/C=C/CF)[C@H](CC#N)C5)c43)c2F)c1C` (single isomer, unassigned) [Example 67b]: the IC50 in assay [1] (Homo sapiens, MIA PaCa-2) is ≤ 100 nM; at KRAS G12C, ≤ 100 nM.

As to `C=CC(=O)N1CC[C@H](n2ncc3c(N4CC(N(C)C)C4)nc4c(F)c(-c5cccc(Cl)c5Cl)c(Cl)cc4c32)C[C@H]1CC#N` (single isomer, unassigned) [Example 25a], the 50% inhibitory concentration (IC50) in assay [1] (Homo sapiens, MIA PaCa-2) was ≤ 100 nM; at KRAS G12C it was ≤ 100 nM.

For the compound `C=CC(=O)N1CC[C@H](n2ncc3c(N4CC(N(C)C)C4)nc4c(F)c(-c5c(C)c(Cl)cc6[nH]ncc56)c(Cl)cc4c32)C[C@H]1CC#N` (single isomer, unassigned) [Example 3b], the IC50 (in assay [1]; on KRAS G12C) was ≤ 100 nM throughout.

On to `COC/C=C/C(=O)N1CC[C@H](n2ncc3c(O[C@@H](C)[C@@H]4CCCN4C)nc4c(F)c(-c5cccc6cccc(Cl)c56)c(Cl)cc4c32)C[C@H]1CC#N` [Example 88, 2-((2S,4S)-4-(8-chloro-7-(8-chloronaphthalen-1-yl)-6-fluoro-4-((S)-1-((S)-1-methylpyrrolidin-2-yl)ethoxy)-1H-pyrazolo[4,3-c]quinolin-1-yl)-1-((E)-4-methoxybut-2-enoyl)piperidin-2-yl)acetonitrile], for which the IC50 is ≤ 100 nM in assay [1] (Homo sapiens, MIA PaCa-2) and ≤ 100 nM at KRAS G12C.

For the compound `Cc1c(Cl)cc2[nH]ncc2c1-c1c(Cl)cc2c(nc(N3CC(N(C)C)C3)c3cnn([C@H]4CCN(C(=O)/C=C/CN(C)C)[C@H](CC#N)C4)c32)c1F` (single isomer, unassigned) [Example 4a], the IC50 is ≤ 100 nM in assay [1] (Homo sapiens, MIA PaCa-2) and ≤ 100 nM at KRAS G12C.

Turning to `C=CC(=O)N1CC[C@H](n2ncc3c(N4CC(N(C)C)C4)nc4c(F)c(-c5cccc(Cl)c5Cl)c(Cl)cc4c32)C[C@H]1CC#N` (single isomer, unassigned) [Example 25b], the IC50 (in assay [1]; at KRAS G12C) was ≤ 100 nM in each case.

Turning to `COC/C=C/C(=O)N1CC[C@H](n2ccc3c(OC[C@@H]4CCCN4C)nc4c(F)c(-c5c(C)c(C)cc6[nH]ncc56)c(Cl)cc4c32)C[C@H]1CC#N` (single isomer, unassigned) [Example 47a], the IC50 in assay [1] (Homo sapiens, MIA PaCa-2) was ≤ 100 nM; on KRAS G12C it was ≤ 100 nM.

For the compound `Cc1cc2c(nc(N3CC(C)(N(C)C)C3)c3cnn([C@H]4CCN(C(=O)/C=C/CN(C)C)[C@H](CC#N)C4)c32)c(F)c1-c1cccc2cccc(C#N)c12` (single isomer, unassigned) [Example 62a], the IC50 was ≤ 100 nM in assay [1] (Homo sapiens, MIA PaCa-2) and ≤ 100 nM at KRAS G12C.

`C=CC(=O)N1CC[C@H](n2ncc3c(N4CC(N(C)C)C4)nc4c(F)c(-c5ccc(F)c6cccnc56)c(Cl)cc4c32)C[C@H]1CC#N` (single isomer, unassigned) [Example 21b]: the IC50 (in assay [1]; at KRAS G12C) was ≤ 100 nM in each case.

As for `C=C(F)C(=O)N1CC[C@H](n2ncc3c(O[C@@H](C)[C@@H]4CCCN4C)nc4c(F)c(-c5cccc6cccc(Cl)c56)c(Cl)cc4c32)C[C@H]1CC#N` [Example 86, 2-((2S,4S)-4-(8-chloro-7-(8-chloronaphthalen-1-yl)-6-fluoro-4-((S)-1-((S)-1-methylpyrrolidin-2-yl)ethoxy)-1H-pyrazolo[4,3-c]quinolin-1-yl)-1-(2-fluoroacryloyl)piperidin-2-yl)acetonitrile], the 50% inhibitory concentration (IC50) in assay [1] (Homo sapiens, MIA PaCa-2) is ≤ 100 nM; at KRAS G12C, ≤ 100 nM.

Turning to `C=CC(=O)N1CC[C@H](n2ncc3c(N4CC(C)(N(C)C)C4)nc4c(F)c(-c5c(C)c(Cl)cc6[nH]ncc56)c(Cl)cc4c32)C[C@H]1CC#N` (single isomer, unassigned) [Example 16a], the IC50 in assay [1] (Homo sapiens, MIA PaCa-2) is ≤ 100 nM; on KRAS G12C, ≤ 100 nM.

In the case of `CC#CC(=O)N1CC[C@H](n2ncc3c(N4CC(C)(N(C)C)C4)nc4c(F)c(-c5c(C)c(Cl)cc6[nH]ncc56)c(Cl)cc4c32)C[C@H]1CC#N` (single isomer, unassigned) [Example 11a], the IC50 in assay [1] (Homo sapiens, MIA PaCa-2) was ≤ 100 nM; at KRAS G12C it was ≤ 100 nM.

Turning to `COC/C=C/C(=O)N1CC[C@H](n2ncc3c(N4CC(C)(N(C)C)C4)nc4c(F)c(-c5cccc6cccc(C#N)c56)c(C)cc4c32)C[C@H]1CC#N` (single isomer, unassigned) [Example 61a], the IC50 was ≤ 100 nM in assay [1] (Homo sapiens, MIA PaCa-2) and ≤ 100 nM at KRAS G12C.

For the compound `C=CC(=O)N1CC[C@H](n2ncc3c(OC[C@@H]4CCCN4C)nc4c(F)c(-c5c(C)c(Cl)cc6[nH]ncc56)c(Cl)cc4c32)C[C@H]1CC#N` (single isomer, unassigned) [Example 20a], the IC50 was ≤ 100 nM in assay [1] (Homo sapiens, MIA PaCa-2) and ≤ 100 nM on KRAS G12C.

As for `C=C(F)C(=O)N1CC[C@H](n2ncc3c(O[C@@H](C)[C@@H]4CCCN4C)nc4c(F)c(-c5cccc6cccc(C#N)c56)c(C)cc4c32)C[C@H]1CC#N` (single isomer, unassigned) [Example 56b], the IC50 in assay [1] (Homo sapiens, MIA PaCa-2) is ≤ 100 nM; on KRAS G12C, ≤ 100 nM.
